In publication PMC7033111, “Rational design of novel benzisoxazole derivatives with acetylcholinesterase inhibitory and serotoninergic 5-HT4 receptors activities for the treatment of Alzheimer’s disease” (Scientific Reports, 2020):
Where “and” joins values, the source holds several entries; their conditions need not be identical. Equal entries are not always repeated. Where two headings read alike, the source gives them in different places.

Legend:
[1] = target: T1, hAChE (AChE from human erythrocytes) (Homo sapiens, UniProt P22303); assay: hAChE inhibition, spectrometric Ellman method; type: biochemical; details: for inhibition at 1 µM: 10^−6 M compound; for IC50: Ellman method, n = 2; for inhibition of the enzyme (AChE), in words: statement in discussion
T1 construct: AChE from human erythrocytes; purchased Sigma Aldrich; host or cells: human erythrocytes (tissue-derived enzyme)
T1 sequence (P22303 other isoform, or with tags, fused parts or gaps): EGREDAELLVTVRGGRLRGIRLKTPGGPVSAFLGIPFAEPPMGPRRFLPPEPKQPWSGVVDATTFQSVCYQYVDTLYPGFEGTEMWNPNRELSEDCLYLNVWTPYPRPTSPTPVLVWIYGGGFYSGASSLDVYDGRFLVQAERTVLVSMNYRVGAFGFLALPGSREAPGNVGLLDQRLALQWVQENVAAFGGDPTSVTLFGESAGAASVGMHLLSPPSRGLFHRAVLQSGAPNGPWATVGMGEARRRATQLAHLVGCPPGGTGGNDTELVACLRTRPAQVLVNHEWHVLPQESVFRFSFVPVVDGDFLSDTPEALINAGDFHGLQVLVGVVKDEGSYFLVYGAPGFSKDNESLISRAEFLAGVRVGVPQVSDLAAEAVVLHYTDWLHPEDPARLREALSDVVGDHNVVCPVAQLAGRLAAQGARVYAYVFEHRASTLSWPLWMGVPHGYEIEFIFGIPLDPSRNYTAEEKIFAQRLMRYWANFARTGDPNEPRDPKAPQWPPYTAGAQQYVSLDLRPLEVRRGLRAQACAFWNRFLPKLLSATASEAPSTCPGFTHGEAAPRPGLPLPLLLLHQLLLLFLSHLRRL
Method: Inhibitory capacity of compounds on AChE biological activity was evaluated through the use of the spectrometric method of Ellman[39]. Acetylthiocholine and 5,5-dithiobis-(2-nitrobenzoic) acid (DTNB) were purchased from Sigma Aldrich. AChE from human erythrocytes (buffered aqueous solution, ≥500 units/mg protein (BCA), Sigma Aldrich) was diluted in 20 mM HEPES buffer pH 8, 0.1% Triton X-100 such as to have enzyme solution with 0.25 unit/mL enzyme activity. In the procedure, 100 μL of 0.3 mM DTNB dissolved in phosphate buffer pH 7.4 were added into the 96 wells plate followed by 50 μL of test compound solution and 50 μL of enzyme ([…]). After 5 min of preincubation at 25 °C, the reaction was then initiated by the injection of 50 μL of 10 mM acetylthiocholine iodide solution. The hydrolysis of acetylthiocholine was monitored by the formation of yellow 5-thio-2-nitrobenzoate anion as the result of the reaction of DTNB with thiocholine, released by the enzymatic hydrolysis of acetylthiocholine, at a wavelength of 412 nm using a 96-well microplate plate reader (TECAN Infinite M200, Lyon, France). Test compounds were dissolved in analytical grade DMSO. Donepezil was used as a reference standard. The rate of absorbance increase at 412 nm was followed every minute for 10 min. Assays were performed with a blank containing all components except acetylthiocholine, in order to account for non-enzymatic reaction. The reaction slopes were compared and the percent inhibition due to the presence of test compounds was calculated by the following expression: 100 − (vi/v0 × 100) where vi is the rate calculated in the presence of inhibitor and v0 is the enzyme activity.
For the compounds with significant inhibition (≥50%), IC50 values were determined graphically by plotting the % inhibition versus the logarithm of six inhibitor concentrations in the assay solution using the Origin software.

[2] = target: T2, human 5-HT4R (5-HT4(b) receptor membranes) (Homo sapiens, UniProt Q13639); assay: h5-HT4R competition binding with [3H]-GR113808; details: for inhibition: 0.2 nM [3H]-GR113808
T2 construct: purchased Millipore HTS110M
T2 sequence (Q13639 whole entry): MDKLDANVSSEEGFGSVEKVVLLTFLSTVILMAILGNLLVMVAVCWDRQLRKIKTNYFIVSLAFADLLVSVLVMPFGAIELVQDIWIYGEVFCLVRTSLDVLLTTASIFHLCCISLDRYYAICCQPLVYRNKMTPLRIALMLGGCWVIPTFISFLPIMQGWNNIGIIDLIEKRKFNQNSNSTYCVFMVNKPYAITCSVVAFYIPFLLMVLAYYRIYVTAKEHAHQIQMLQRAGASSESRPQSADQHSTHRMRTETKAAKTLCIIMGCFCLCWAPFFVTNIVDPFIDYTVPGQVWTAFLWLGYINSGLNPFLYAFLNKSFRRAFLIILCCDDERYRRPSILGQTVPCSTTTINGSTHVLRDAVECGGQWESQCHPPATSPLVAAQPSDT
Method: The competition studies used membrane preparations made from proprietary stable recombinant cell lines expressing the 5-HT4(b) receptor to ensure high-level of GPCR surface expression (HTS110M, Millipore). Membranes (2.5 µg protein) were incubated in duplicate at 25 °C for 60 min in the absence or the presence of 10^–6 or 10^–8M of each drug and 0.2 nM [^3H]-GR 113808 (VT 240, ViTrax) in 25 mM Tris buffer (pH 7.4, 25 °C). At the end of the incubation, homogenates were filtered through Whatman GF/C filters (Alpha Biotech) pre-soaked with 0.5% polyethylenimine using a Brandel cell harvester. Filters were subsequently washed three times with 4 mL of ice-cold 25 mM Tris buffer (pH 7.4, 4 °C). Non-specific binding was evaluated in parallel in the presence of 30 μM serotonin.
For some of these compounds, affinity constants were calculated from five-point inhibition curves using the EBDA-Ligand software and expressed as Ki ± SD[41].

[3] = target: T3, HA-tagged human 5-HT4 receptor (Homo sapiens, UniProt Q13639); assay: cAMP production, agonist mode, transfected COS-7 cells; type: cell-based; details: for Log(EC50): given as Log(EC50); for 5-HT4 pharmacological profile (agonism assay): cAMP production, COS-7 cells
T3 construct: HA; expressed in transfected cells; host or cells: COS-7 cells (ATCC CRL-1651), transient transfection
T3 sequence (Q13639 whole entry): as above
Description: (§1) Figure 5 Determination of the 5-HT4 pharmacological profiles for compounds 16, 32a and 33 by quantification of cAMP production. (A) Assay to determine the agonism activity (with serotonin and the partial agonist RS-67333 as references). (B) Assay to determine the antagonism activity (with the antagonist GR113808 as reference). Data presented are the mean of three independent experiments performed in duplicate.
(§2) COS-7 cells were purchased from ATCC (ATCC CRL-1651; LGC […], Molsheim, France). T were grown in Dulbecco’s modified Eagle medium (DMEM) supplemented with 10% dialyzed fetal calf serum (dFCS) and antibiotics. Cells were transiently transfected with plasmid encoding HA-tagged human 5-HT4 receptor, then seeded in 96-well plates (35,000 cells/well). 24 hrs after transfection, cells were washed once with 200 µl of HBS (20 mM HEPES; 150 mM NaCl; 4.2 mM KCl; 0.9 mM CaCl2; 0.5 mM MgCl2; 0.1% glucose; 0.1% BSA) and, after HBS removal, exposed to the indicated concentrations of 5-HT4R ligands in the presence of 0.1 mM of the phosphodiesterase inhibitor RO-20-1724, at 37 °C in 100 µl of HBS. After 10 min, cells were then lysed by addition of the same volume of Triton-X100 (0.1%) during 30 min at 37 °C. The competition assay in antagonist mode was performed as follows: after one wash in 200 µl of HBS, cells were exposed to 5-HT4R ligands at twice the indicated concentration, at 37 °C in 50 µl of HBS. After 7 min, serotonin (final concentration of 5.10^−7M) was added in 50 µl of HBS in the presence of the phosphodiesterase inhibitor RO-20-1724 (final concentration of 0.1 mM). After 10 min, cells were then lysed by addition of the same volume of Triton-X100 (0.1%) during 30 min at 37 °C. Quantification of cAMP production was performed by HTRF by using the cAMP Dynamic kit (Cisbio Bioassays) according to the manufacturer’s instructions

[4] = target: T3, HA-tagged human 5-HT4 receptor; assay: cAMP production, competition assay in antagonist mode vs serotonin, transfected COS-7 cells; type: cell-based; details: for 5-HT4 pharmacological profile (antagonism assay): cAMP production
Description: as §1, §2

[5] = 10^−6 M compound, read-out: h5-HT4R % inhibition at 10^−6 M (converted)
[6] = 10^−8 M compound, read-out: h5-HT4R % inhibition at 10^−8 M (converted)
[7] = agonist mode, individual experiments HP5, HP6, HP7
[8] = IC50 (5-HT4R antagonist, cAMP production), COS-7 cells, serotonin 5.10^−7 M, mean of three experiments
[9] = IC50, antagonist mode, individual experiments HP8, HP10, HP11, unit inferred
[10] = Log(IC50), antagonist mode, Moy., printed as Log(IC50), negative
[11] = antagonist mode, individual experiments HP8, HP10, HP11

SMILES: c1ccc2c(OCC3CCN(CC4CCCCC4)CC3)noc2c1 [Compound 11, 3-[[1-(cyclohexylmethyl)-4-piperidyl]methoxy]-1,2-benzoxazole]
- inhibition at 1 µM [1]: 24%
- Ki [2]: 9.6 ± 1.6 nM
- inhibition [2, 5]: 100%
- inhibition [2, 6]: 67%

SMILES: c1ccc(CN2CCC(COc3noc4ccccc34)CC2)cc1 [Compound 12]
- Ki [2]: 42.4 ± 12.2 nM
- inhibition [2, 5]: 99%
- inhibition [2, 6]: 29%

SMILES: CC(C)CN1CCC(COc2noc3ccccc23)CC1 [Compound 13]
- inhibition at 1 µM [1]: 8%
- Ki [2]: 20.8 ± 12.5 nM
- inhibition [2, 5]: 100%
- inhibition [2, 6]: 59%

SMILES: COc1cccc2onc(OCC3CCN(CC4CCCCC4)CC3)c12 [Compound 14]
- inhibition at 1 µM [1]: 82%
- IC50 [1]: 441 ± 63 nM
- Ki [2]: 2.7 ± 0.4 nM
- inhibition [2, 5]: 100%
- inhibition [2, 6]: 99%

SMILES: COc1cccc2onc(OCC3CCN(Cc4ccccc4)CC3)c12 [Compound 15]
- inhibition at 1 µM [1]: 82%
- IC50 [1]: 939 ± 40 nM
- Ki [2]: 3 ± 0.4 nM
- inhibition [2, 5]: 100%
- inhibition [2, 6]: 94%

SMILES: COc1cccc2onc(OCC3CCN(CC(C)C)CC3)c12 [Compound 16]
- inhibition at 1 µM [1]: 23%
- inhibition of the enzyme (AChE), in words [1]: did not show any inhibition
- Ki [2]: 4.1 ± 0.4 nM
- inhibition [2, 5]: 100%
- inhibition [2, 6]: 100%
- Top AMPc ([3]; agonist mode, Moy.): 4%
- EC50 ([3]; agonist mode, Moy. (mean of HP5-HP7), unit not given): ns
- Log(EC50) ([3]; agonist mode, Moy., negative): ns
- Top AMPc [3, 7]: 5.63% and 0.00% and 6.91%
- Log(EC50) [3, 7]: ns
- EC50 ([3]; agonist mode, individual experiments HP5, HP6, HP7, unit not given): ns
- 5-HT4 pharmacological profile (agonism assay) [3]: not agonist
- IC50 [4, 8]: 5.6 ± 2.2 nM
- IC50 [4, 9]: 5.07 nM and 2.01 nM and 9.78 nM
- IC50 [4, 10]: 5.01 nM
- Bott. AMPc ([4]; antagonist mode, Moy.): 31%
- Bott. AMPc [4, 11]: 39.69% and 29.62% and 24.98%
- 5-HT4 pharmacological profile (antagonism assay) ([4]; COS-7 cells): highly potent antagonist

SMILES: c1ccc2c(CCC3CCN(CC4CCCCC4)CC3)noc2c1 [Compound 21]
- inhibition at 1 µM [1]: 84%
- IC50 [1]: 240 ± 59 nM
- Ki [2]: 139 ± 9 nM
- inhibition [2, 5]: 89%
- inhibition [2, 6]: 4%

SMILES: c1ccc(CN2CCC(CCc3noc4ccccc34)CC2)cc1 [Compound 22]
- Ki [2]: 263 ± 11 nM
- inhibition [2, 5]: 78%
- inhibition [2, 6]: 8%

SMILES: CC(C)CN1CCC(CCc2noc3ccccc23)CC1 [Compound 23]
- inhibition at 1 µM [1]: 11%
- inhibition [2, 5]: 87%
- inhibition [2, 6]: 8%

SMILES: COc1cccc2onc(CCC3CCN(CC4CCCCC4)CC3)c12 [Compound 32a, 3-[2-[1-(cyclohexylmethyl)-4-piperidyl]ethyl]-4-methoxy-1,2-benzoxazole]
- inhibition at 1 µM [1]: 94%
- IC50 [1]: 63.5 ± 19.2 nM
- Ki [2]: 59 ± 8.5 nM
- inhibition [2, 5]: 100%
- inhibition [2, 6]: 13%
- EC50 ([3]; EC50, agonist mode, Moy. (mean of HP5-HP7), unit inferred): 11300 nM
- EC50 ([3]; EC50, agonist mode, individual experiments HP5, HP6, HP7, unit inferred): 13600 nM and 20300 nM
- Top AMPc ([3]; agonist mode, Moy.): 22%
- Top AMPc [3, 7]: 29.36% and 12.83% and 24.95%
- 5-HT4 pharmacological profile (agonism assay) [3]: not agonist
- IC50 [4, 8]: 97.2 ± 17.2 nM
- IC50 [4, 9]: 129 nM and 69.5 nM and 93.6 nM
- IC50 [4, 10]: 100 nM
- Bott. AMPc ([4]; antagonist mode, Moy.): 33%
- Bott. AMPc [4, 11]: 38.80% and 27.69% and 32.50%
- 5-HT4 pharmacological profile (antagonism assay) ([4]; COS-7 cells): antagonists

SMILES: CCOc1cccc2onc(CCC3CCN(CC4CCCCC4)CC3)c12 [Compound 32b]
- inhibition at 1 µM [1]: 87%
- IC50 [1]: 200 ± 32 nM
- Ki [2]: 80.5 ± 9.9 nM
- inhibition [2, 5]: 100%
- inhibition [2, 6]: 16%

SMILES: CC(C)COc1cccc2onc(CCC3CCN(CC4CCCCC4)CC3)c12 [Compound 32c]
- inhibition at 1 µM [1]: 42%
- inhibition of the enzyme (AChE), in words [1]: without AChE inhibition
- Ki [2]: 219 ± 65 nM
- inhibition [2, 5]: 100%
- inhibition [2, 6]: 4%

SMILES: c1cc(OC2CCCC2)c2c(CCC3CCN(CC4CCCCC4)CC3)noc2c1 [Compound 32d]
- inhibition at 1 µM [1]: 52%
- IC50 [1]: 1000 ± 84 nM
- Ki [2]: 616 ± 67 nM
- inhibition [2, 5]: 100%
- inhibition [2, 6]: 0%

SMILES: c1ccc(COc2cccc3onc(CCC4CCN(CC5CCCCC5)CC4)c23)cc1 [Compound 32e]
- inhibition at 1 µM [1]: 10%
- Ki [2]: 2920 ± 781 nM
- inhibition [2, 5]: 96%
- inhibition [2, 6]: 0%
